Test results reported in ChEMBL document CHEMBL1201862, “PubChem BioAssay data set” (2004).
Calls of active or inactive are those of the source. For most assays here, no stated cut-off is given here; in the data, actives have a measured IC50 and inactives only a lower limit.

Tests used:
Assay type in all cases: functional
Protein RecA = biological target: T1, Protein RecA (Mycobacterium tuberculosis, UniProt P9WHJ3); assay: Fluorescence Cell-Free Homogeneous Dose Retest to Identify Inhibitors of RecA-Intein Splicing Activity. [Related pubchem assays (depositor defined):AID2097, AID2223, AID489010, AID492950]
T1 sequence (P9WHJ3 whole entry): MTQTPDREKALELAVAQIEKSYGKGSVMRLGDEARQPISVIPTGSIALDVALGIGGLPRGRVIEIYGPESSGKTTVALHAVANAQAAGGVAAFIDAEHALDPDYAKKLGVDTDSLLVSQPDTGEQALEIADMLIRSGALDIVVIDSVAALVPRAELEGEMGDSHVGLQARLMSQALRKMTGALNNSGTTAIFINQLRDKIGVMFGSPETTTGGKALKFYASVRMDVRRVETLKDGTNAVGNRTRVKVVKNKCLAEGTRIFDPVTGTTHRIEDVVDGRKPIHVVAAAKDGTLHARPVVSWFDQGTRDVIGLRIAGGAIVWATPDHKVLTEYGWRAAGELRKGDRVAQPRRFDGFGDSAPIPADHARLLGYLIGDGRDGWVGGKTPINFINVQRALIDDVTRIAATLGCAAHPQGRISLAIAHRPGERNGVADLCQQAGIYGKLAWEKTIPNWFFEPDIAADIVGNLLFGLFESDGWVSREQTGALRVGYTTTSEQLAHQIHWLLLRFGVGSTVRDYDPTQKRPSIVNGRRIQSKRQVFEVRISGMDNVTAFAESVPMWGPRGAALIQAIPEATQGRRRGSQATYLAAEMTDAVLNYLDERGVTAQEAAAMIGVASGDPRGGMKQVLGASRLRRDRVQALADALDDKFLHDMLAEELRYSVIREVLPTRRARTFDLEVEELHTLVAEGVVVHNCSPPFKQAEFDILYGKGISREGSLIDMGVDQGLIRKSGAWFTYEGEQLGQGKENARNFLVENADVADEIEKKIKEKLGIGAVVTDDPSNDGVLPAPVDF

[1] = biological target: T2, Sentrin-specific protease 7 (Homo sapiens, UniProt Q9BQF6);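 further: Luminescence-based dose-response confirmation of ultra-high-throughput screening hits, measuring inhibition of SENP7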
T2 sequence (Q9BQF6 whole entry): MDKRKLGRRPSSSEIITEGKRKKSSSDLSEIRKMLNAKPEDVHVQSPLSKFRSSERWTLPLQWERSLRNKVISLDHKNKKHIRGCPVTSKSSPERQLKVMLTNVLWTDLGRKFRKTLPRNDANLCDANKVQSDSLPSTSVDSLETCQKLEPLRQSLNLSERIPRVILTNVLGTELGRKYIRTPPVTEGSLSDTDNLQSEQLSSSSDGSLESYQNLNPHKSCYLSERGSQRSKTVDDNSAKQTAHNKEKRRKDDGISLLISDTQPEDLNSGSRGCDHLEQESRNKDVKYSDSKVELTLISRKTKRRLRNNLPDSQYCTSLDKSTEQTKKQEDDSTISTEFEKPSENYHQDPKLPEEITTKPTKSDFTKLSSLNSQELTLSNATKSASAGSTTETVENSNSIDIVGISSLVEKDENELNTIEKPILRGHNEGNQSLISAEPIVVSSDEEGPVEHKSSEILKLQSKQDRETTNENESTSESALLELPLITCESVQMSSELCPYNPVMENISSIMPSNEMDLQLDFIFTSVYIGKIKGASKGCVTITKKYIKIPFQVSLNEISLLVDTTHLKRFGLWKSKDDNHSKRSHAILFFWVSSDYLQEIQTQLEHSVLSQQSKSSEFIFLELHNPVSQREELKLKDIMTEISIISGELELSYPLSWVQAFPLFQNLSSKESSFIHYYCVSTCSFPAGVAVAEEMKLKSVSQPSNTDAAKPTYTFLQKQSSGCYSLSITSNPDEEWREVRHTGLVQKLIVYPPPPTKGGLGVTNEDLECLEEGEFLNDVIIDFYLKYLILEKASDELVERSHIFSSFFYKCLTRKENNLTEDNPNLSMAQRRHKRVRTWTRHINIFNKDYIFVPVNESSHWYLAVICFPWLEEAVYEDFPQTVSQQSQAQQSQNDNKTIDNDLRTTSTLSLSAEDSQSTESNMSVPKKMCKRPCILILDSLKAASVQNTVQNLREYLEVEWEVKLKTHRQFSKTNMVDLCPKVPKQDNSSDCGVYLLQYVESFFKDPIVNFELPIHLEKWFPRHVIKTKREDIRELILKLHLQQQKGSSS

[2] = biological target: T3, Sentrin-specific protease 8 (Homo sapiens, UniProt Q96LD8);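 further: luminescence read-out of SENP8 inhibition, dose-response confirmation following an ultra-high-throughput screen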
T3 sequence (Q96LD8 whole entry): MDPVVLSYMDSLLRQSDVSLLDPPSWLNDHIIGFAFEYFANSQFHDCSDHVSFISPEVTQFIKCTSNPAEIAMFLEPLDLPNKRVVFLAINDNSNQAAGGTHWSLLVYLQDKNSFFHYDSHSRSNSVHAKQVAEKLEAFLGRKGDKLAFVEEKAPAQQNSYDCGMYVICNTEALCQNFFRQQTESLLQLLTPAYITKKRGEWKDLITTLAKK

Compound	EC50 (Protein RecA)	IC50 [1]	IC50 [2]
CC(=O)NC1C(=O)N(CCN2CCOCC2)c2ccc(F)cc21 (centres undefined)	12.1 µM (active)	–	–
O=C1N=C(NS(=O)(=O)Cc2ccccc2)S/C1=C1\C(=O)Nc2ccccc21	–	3.76 µM (active)	24.5 µM (active)
O=C1C=C(N2CCCCC2)c2ccccc2C1=O	1.25 µM (active)	–	–
O=C(O)C1Nc2c(O)cc(Cl)c([N+](=O)[O-])c2C2C=CCC12 (centres undefined)	11.5 µM (active)	–	–
Clc1ccc2nc(-c3ccc(Br)s3)cn2c1	–	7.91 µM (active)	16.5 µM (active)
Oc1ccc(N=Nc2c(O)ccc3ccccc23)cc1	–	8.49 µM (active)	8.8 µM (active)
